# In US5707821A, “Identification of phospholipase A2 inhibitors in Aβ peptide-mediated neurodegenerative disease” (priority 1995, dated 1998):
# Experiments:
# Type in all cases: cell-based
# [1] = system: TNFα release by cultured human cortical microglia; assay: TNF release from LPS-stimulated human cortical microglia
# Description: (§1) Cultures of human cortical or hippocampal astrocytes and microglia were prepared using a modification of the procedure described for cortical neurons. Cortical tissue from fetuses of 16 to 20 weeks of gestation was washed 3 times in Ca^2+ /Mg^2+ free Hanks balanced salt solution (CMF HBSS) and then dissociated by repeated pipetting. The solution was brought to a final volume of 80 ml CMF HBSS for approximately 10 ml of tissue. DNase (Sigma) was added to a final concentration of 0.05 mg/ml. 20 ml of the solution was passed through one 100 μm nylon cell strained (Falcon). The cells were then centrifuged for 5 minutes at 200×G in an IEC Clinical Centrifuge and resuspended in a trypsin/EDTA solution (0.05% trypsin+0.53 mM EDTA in HBSS; Gibco) and incubated for 20 minutes at 37°C. (10 ml of trypsin was added per 2-3 ml of tissue). The trypsin was then inactivated by adding (MEM/FBS): Modified Eagle's Medium (MEM) containing 1% glucose, 1 mM sodium pyruvate, 1 mM glutamine, and supplemented with 10% fetal bovine serum (JRH). After adding a final concentration of 0.05 mg/ml DNase the cells were resuspended and then pelleted by centrifugation and resuspended in MEM/FBS. 1.6×10^8 cells were seeded in a T-150 tissue culture flask coated with polyethyleneimine (PEI). (10% PEI (Sigma) was diluted 1:10 in H2 O, filtered through a […] unit and then diluted into 150 mM sodium borate pH 8.5 at 1:100. The flasks were coated overnight at room temperature, washed two times in PBS and coated with 20 ml/flask of MEM/FBS at 37° C. for at least one hour prior to plating cells.) Cultures were maintained in a H2 O-saturated incubator with an atmosphere of 95% air/5% CO2 at 37° C. The culture medium was changed one and four days after plating and the cultures were then left undisturbed for at least one week. After approximately two weeks in vitro, the flasks were gently shaken and floating microglia were collected and centrifuged for 5 minutes at 200×G in an IEC Clinical Centrifuge. The microglia were reseeded in 96 well tissue culture plates at a density of 5,000-40,000 cells/well in 125 μl in MEM/FBS. Astrocyte cultures were prepared by multiple passaging of the established mixed brain cell cultures. Each T-150 was incubated for 3-4 minutes at 37°C. with a trypsin/EDTA solution (see above). The trypsin was then inactivated by adding MEM/FBS. The cells were triturated and then pelleted by centrifugation and resuspended in MEM/FBS. The cells from one T-150 were seeded at a 1:30 to 1:5 dilution in T-150's not coated. Just prior to confluency the cells were repassaged by trypsinization as described above. This process was repeated until the cultures were >98% pure astrocytes.
# (§2) The effects of the benzenesulfonamide PLA2 inhibitor AN20606 and the selective cytosolic PLA2 inhibitor arachidonyl trifluoromethyl ketone (AN20579) were examined in cultured human cortical microglia for their selectivity for inhibiting microglia activation mediated by amyloid-βpeptide and lipopolysaccharides (LPS). LPS are a major constituent of the cell wall of gama-negative bacteria and are extensively used for generating inflammatory responses in cultured cells and in vivo.
# [2] = system: human cortical neurons; assay: Aβ neurotoxicity in human cortical neurons (alamarBlue), 2 h pretreatment with inhibitor; conditions: Homo sapiens, Cortical neurone, 50 μM Aβ1-40, compound 390 nM to 100 μM, 2 h pretreatment and re-added with Aβ, 3 days, n=3
# Description: Cultures of human cortical or hippocampal neurons were prepared using a modification of the procedure described in P. Seubert et al. (1992), Nature 359:325-327. Cortical or hippocampal tissue was dissociated by incubation in a trypsin/EDTA solution (0.05% trypsin +0.53 mM EDTA in HBSS; Gibco) for 20 minutes at 37° C. The trypsin was then inactivated by resuspending the cells in serum-containing medium (MEM/FBS): Modified Eagle's Medium (MEM) containing 1% glucose, 1 mM sodium pyruvate, 1 mM glutamine, and supplemented with 10% fetal bovine serum (Gibco). Cells were then pelleted by centrifugation and resuspended in a chemically-defined medium (MEM/B27): MEM containing B27 supplement (Gibco) in place of FBS. Polyethyleneimine (PEI)-coated 6.4-mm (96-well) dishes were rinsed once with MEM/FBS, and then seeded at 0.75-1.25×10^5 cells per well in 0.1 ml MEM/B27. Cultures were maintained in a H2 O-saturated incubator with an atmosphere of 95% air/5% CO2 at 37° C. The culture medium was exchanged twice weekly.
# Amyloid-β (Aβ) stock solutions were prepared as 1 mM stocks in sterile ddH2 O immediately prior to addition to cultures. Rat cortical neurons were exposed to Aβ by removing the culture medium and replacing it with DMEM/N2 or DMEM/B27 containing Aβ1-40. Human cortical neurons were exposed to Aβ by removing the culture medium and replacing it with MEM, MEM/N2, or MEM/B27 containing Aβ1-40. Cultures were maintained for 2-4 days before neuronal survival was quantified using alamarBlue™.
# The alamarBlue™ assay incorporated a proprietary fluorometric/colorimetric metabolic indicator (Alamar Biosciences, Inc.). Viable cells convert alamarBlue™ from an oxidized (non-fluorescent, blue) form to a reduced (fluorescent, red) form. Assays were performed by replacing the culture media with a 10% alamarBlue™ solution in DMEM (rat cortical cultures) or MEM (human cortical cultures). Reduction of alamarBlue™ was determined spectrofluorometrically using a Millipore Cytofluor 2350 Scanner (excitation, […]; emission, 590 nm) and CytoCalc™ software (Millipore Corporation).
# The effect of pretreating human cortical neuron cultures with the benzenesulfonamide PLA2 inhibitors and arachidonyl trifluoromethyl ketone prior to exposure to a neurotoxic concentration of Aβ1-40 was determined.
# Human cortical neurons were treated with 50 μM Aβ1-40 and various inhibitors of PLA2. Compounds were added 2 hours prior to Aβ1-40 treatment at concentrations of 390 nM to 100 μM, and were then re-added at the time of Aβ1-40 treatment. Compounds were also added in an identical manner to neuronal cultures in the absence of Aβ1-40. Neuronal survival was determined after 3 days of treatment by alamarBlue®. IC50 is the dose of compound that inhibited Aβ-mediated neurotoxicity by 50%. […] Data represents the mean ± SD (n=3). ND, not detected at the concentration range used.
# [3] = system: TNF-α release by cultured human cortical microglia; assay: TNF-α release (ELISA) from Aβ1-40-stimulated human microglia
# Description: as §1
# Cultured microglial cells were treated with 50 μM of Aβ1-40 or vehicle only (Control). The levels of IL-1β, IL-6, and TNF-α released into the culture medium were determined by ELISA assay (R&D Systems) according to manufacturer's instructions.
# The effect of two benzenesulfonamide inhibitors of PLA2 (European Patent Application 468 054) were examined on the activation of microglial cells by Aβ1-40 as in Example 1.
# as §2
smiles,measurement,setting,value
"CN(C(=O)/C=C/c1ccc(S(C)(=O)=O)cc1)c1ccc(S(=O)(=O)NC2CCCCCC2)cc1 [AN20606, N-cycloheptyl-4-[N-methyl-N-[(E)-3-(4-methylsulfonylphenyl)-2-propenoyl]amino]benzenesulfonamide]",TNF Released,"[1]; 10 ng/ml LPS, inhibitor 20 μM where present",632 ± 211 pg/mL
same,activity at 20 µM,"[1]; Homo sapiens, Microglia, 10 ng/ml LPS + 20 μM inhibitor, read-out: TNF Released, percent in parentheses (relative to LPS alone)",130%
same,"LPS-mediated cytokine release, TNF (in words)",[1]; LPS stimulation,actually enhanced
same,Emax,"[2]; 72 h, read-out: Max Inh",89%
same,IC50,"[2]; ND = not detected at the concentration range used, read-out: IC50 (dose that inhibited Aβ-mediated neurotoxicity by 50%)",3 µM
same,amount of TNF-α released into the medium (in words),"[3]; 50 μM Aβ1-40, 1 day, compound 0, 5, 10, 20 μM, FIG. 2",marked and dose-dependent decrease
same,TNF Released,"[3]; 50 μM Aβ1-40, inhibitor 20 μM where present",3.7 ± 1.4 pg/mL
same,"Aβ1-40-mediated TNFα release, selectivity versus LPS (in words)",[3]; Aβ1-40 versus LPS stimulation,selectively inhibited
same,activity at 20 µM,"[3]; Homo sapiens, Microglia, 50 μM Aβ1-40 + 20 μM inhibitor, read-out: TNF Released, percent in parentheses (relative to Aβ1-40 alone)",4%
